# Where a name gives a salt, the structure may show the parent alone. Marks after values point to notes of the source that are not given here.
# Tests used:
# PD-1/PD-L1 [1] = test: PD-1/PD-L1 expression rate in transplanted tumor tissues, multidrug resistance model; format: in vivo; conditions: transplanted tumor tissues of B16 melanoma mice with multidrug resistance (as titled), Example 5 regimen
# Source text: (§1) The positive expression rate of PD-1/PD-L1 in tumor tissues was detected by immunohistochemical SP method.
# PD-1/PD-L1 [2] = test: PD-1/PD-L1 expression rate (immunohistochemical SP method), drug-resistant B16 melanoma tumor tissue; format: in vivo; conditions: transplanted tumor tissues of drug-resistant B16 melanoma in mice, Example 3 regimen
# Source text: as §1
# [3] = tested on: CD4+T and CD8+T lymphocytes; test: Number of CD4+T and CD8+T lymphocytes in transplanted tumor of multidrug-resistant Lewis lung cancer mice; format: in vivo; conditions: average of 6 high power fields
# Method: (§2) The number of CD4+T and CD8+T lymphocytes was analyzed by immunofluorescence staining, and the average number of CD4+T and CD8+T cells infiltrated in 6 high power fields was counted.
# [4] = tested on: drug-resistant A375 melanoma cell lines; test: MTT: IC50 of dacarbazine against drug-resistant A375 cells and drug-resistant index; format: cell-based, human
# Method: A375 melanoma cell lines were exposed to dacarbazine (400 μg/ml) for 3 months, and centrifuged, to culture dacarbazine-resistant A375 cells. The cells were observed every day, and taken through 3 passages for about 3 days, to ensure cell viability.
# (§3) Above-mentioned cell lines and drug-resistant cell lines in the logarithmic growth phase were selected, the cell concentration was adjusted to 8×10^3 cells/well, and then cells were seeded in a 96-well plate. For the experiment, there were three groups: blank group, control group and dacarbazine group. In the blank group, only medium was added, without inoculating cells; in the control group, medium was added, and cells were inoculated; in the dacarbazine group, medium was added, cells were inoculated, and then dacarbazine was added at different concentrations. The plates were placed in an incubator and incubated for 48 h, then 5 mg/ml MTT (20 μl) was added to each well, and the plate was further incubated for 4 h.
# Drug-resistant index=IC50 value of drug-resistant cells/IC50 value of sensitive cells
# [5] = tested on: CD4+T and CD8+T lymphocytes; test: Number of CD4+T and CD8+T cells (immunofluorescence), drug-resistant B16 melanoma transplanted tumor; format: in vivo; conditions: transplanted tumor of drug-resistant B16 melanoma in mice, average of 6 high power fields
# Method: as §2
# [6] = tested on: dacarbazine-resistant B16 melanoma; test: Tumor weight and inhibition rate, transplanted dacarbazine-resistant B16 melanoma; format: in vivo; conditions: dacarbazine-resistant B16 melanoma mice; test drug 30 mg/kg i.p. once a day 5 days, then dacarbazine 60 mg/kg every other day; positive drug dacarbazine 60 mg/kg
# Method: B16 melanoma cell lines were induced by the increased gradient concentration of dacarbazine, and established by clone screening and cultured without drug before the experiment.
# (§4) After the drug was removed from the drug-resistant cell lines, the cell concentration was adjusted to 1×10^7/ml with the culture medium. 1×10^7/ml of cells were subcutaneously injected into the right armpit of mice, 0.1 ml per mouse.
# (§5) After the average diameter of tumor reached […], the mice were randomly divided into test drug group 1, test drug group 2, test drug group 3, test drug group 4, test drug group 5, test drug group 6, positive drug group, and negative group, respectively.
# (§6) Test drug group: the test drug group was first intraperitoneally injected, once a day, 30 mg/kg/time, for 5 consecutive days; administration was stopped, and the positive drug was given by intraperitoneal injection on the next day; wherein the positive drug dacarbazine was administrated once every other day, 60 mg/kg/time; wherein the positive drug gemcitabine was given once every other day, 300 mg/kg/time.
# (§7) Positive drug group: positive drug dacarbazine was given once every other day, 60 mg/kg/time; positive drug gemcitabine was given once every other day, 300 mg/kg/time.
# (§8) Negative group: normal saline was intraperitoneally injected, once a day, for 15 consecutive days.
# (§9) After completion of administration, the experiment was stopped, and the mice were killed by cervical dislocation and weighed. The tumor was stripped and weighed, to calculate the tumor inhibition rate.
# [7] = tested on: multi-drug resistant Lewis lung cancer; test: Tumor weight and inhibition rate, transplanted multi-drug resistant Lewis lung cancer; format: in vivo, mice; conditions: for Tumor weight / Tumor-inhibition rate (%): multi-drug resistant Lewis lung cancer mice, test drug 30 mg/kg i.p. 5 days, then gemcitabine 300 mg/kg or dacarbazine 60 mg/kg every other day
# Method: Lewis lung cancer cell lines were induced by the increased gradient concentration of dacarbazine and gemcitabine, and established by clone screening, then cultured without drug before the experiment.
# as §4, §5, §6, §7, §8, §9
# PD-1/PD-L1 [8] = test: PD-1/PD-L1 expression rate (immunohistochemical SP method), drug-resistant Lewis lung cancer tumor tissue; format: in vivo; conditions: transplanted tumor tissues of drug-resistant Lewis lung cancer in mice, Example 3 regimen
# Source text: as §1
# [9] = tested on: gemcitabine-resistant Lewis lung cancer; test: Tumor weight and inhibition rate, transplanted gemcitabine-resistant Lewis lung cancer; format: in vivo; conditions: gemcitabine-resistant Lewis lung cancer mice; test drug 30 mg/kg i.p. once a day 5 days, then gemcitabine 300 mg/kg every other day; positive drug gemcitabine 300 mg/kg
# Method: Lewis lung cancer cell lines were induced by the increased gradient concentration of gemcitabine, and established by clone screening and cultured without drug before the experiment.
# as §4, §5, §6, §7, §8, §9
# [10] = tested on: CD4+T and CD8+T lymphocytes; test: Number of CD4+T and CD8+T cells (immunofluorescence), drug-resistant Lewis lung cancer transplanted tumor; format: in vivo; conditions: transplanted tumor of drug-resistant Lewis lung cancer in mice, average of 6 high power fields
# Method: as §2
# [11] = tested on: drug-resistant A549 lung cancer cell lines; test: MTT: IC50 of gemcitabine against drug-resistant A549 cells and drug-resistant index; format: cell-based, human
# Method: A549 lung cancer cell lines were exposed to gemcitabine (2000 μg/ml) for 3 months, and centrifuged, to culture gemcitabine-resistant A549 cells. The cells were observed every day, and taken through 3 passages for about 3 days, to ensure cell viability.
# as §3, with “gemcitabine” for “dacarbazine”, “h. […] Drug-resistant index=IC50 value of drug-resistant cells/IC50 value of sensitive cells” for “h.”
# [12] = tested on: CD4+T and CD8+T lymphocytes; test: Number of CD4+T and CD8+T cells in Opdivo-resistant B16 melanoma mice; format: in vivo; conditions: drug-resistant (Opdivo) B16 melanoma mice, average of 6 high power fields
# Method: as §2
# B16 melanoma cell lines = test: Establishment of Opdivo-resistant tumor model, tumor volume over time, B16 melanoma; format: in vivo; conditions: B16 melanoma mice, Opdivo 30 mg/kg i.p. every other day
# Method: (§10) The concentration of cell lines was adjusted to 1×10^7/ml with the culture medium. 1×10^7/ml of cells were subcutaneously injected into the right armpit of mice, 0.1 ml per mouse.
# PD-1/PD-L1 [13] = test: PD-1/PD-L1 expression rate in tumor tissues of Opdivo-resistant B16 melanoma mice; format: in vivo; conditions: tumor tissues of drug-resistant (Opdivo) B16 melanoma mice
# Source text: as §1
# [14] = tested on: Opdivo-resistant B16 melanoma; test: Antitumor effect (tumor volume, weight, inhibition rate) in Opdivo-resistant B16 melanoma mice; format: in vivo
# Method: as §10
# (§11) The model mice were randomly divided into groups, eight for one group, and included test drug group 1, test drug group 2, test drug group 3, test drug group 4, positive drug Opdivo group, single drug chlorogenic acid group, test drug 1+Opdivo group, test drug 2+Opdivo group, test drug 3+Opdivo group, test drug 4+Opdivo group, and negative group, respectively.
# (§12) Test drug group: from the second day after stopping administration to the model, the group received drug by intraperitoneal injection, once a day, 30 mg/kg.
# (§13) Single drug group: from the second day after stopping administration to the model, the group received drug by intraperitoneal injection, once a day, 30 mg/kg.
# (§14) Test drug+Opdivo group: from the second day after stopping administration to the model, the group received the test drug by intraperitoneal injection, once a day, and the test drug was stopped after administrating for 5 consecutive days; on the next day, Opdivo was intraperitoneally injected, once every other day, with the dosage of 30 mg/kg.
# (§15) Positive drug group: once every other day, 30 mg/kg.
# (§16) Negative group: normal saline was intraperitoneally injected, once a day, the same amount of saline.
# (§17) Before each administration, the tumor volume was measured, and the experiment was stopped when the average tumor volume of negative group was greater than 1.5 cm^3.
# as §9
# [15] = tested on: CD4+T and CD8+T lymphocytes; test: Number of CD4+T and CD8+T cells in Opdivo-resistant Lewis lung cancer mice; format: in vivo; conditions: drug-resistant (Opdivo) Lewis lung cancer mice, average of 6 high power fields
# Method: as §2
# [16] = tested on: Lewis lung cancer cell lines; test: Establishment of Opdivo-resistant tumor model, tumor volume over time, Lewis lung cancer; format: in vivo; conditions: Lewis lung cancer mice, Opdivo 30 mg/kg i.p. every other day
# Method: as §10
# PD-1/PD-L1 [17] = test: PD-1/PD-L1 expression rate in tumor tissues of Opdivo-resistant Lewis lung cancer mice; format: in vivo; conditions: tumor tissues of drug-resistant (Opdivo) Lewis lung cancer mice
# Source text: as §1
# [18] = tested on: Opdivo-resistant Lewis lung cancer; test: Antitumor effect (tumor volume, weight, inhibition rate) in Opdivo-resistant Lewis lung cancer mice; format: in vivo
# Method: as §10, §11, §12, §13, §14, §15, §16, §17, §9
# [19] = 30 mg/kg i.p. once a day, + Opdivo groups: test drug 5 days, then Opdivo 30 mg/kg every other day
# [20] = 30 mg/kg i.p., + Opdivo groups 30 + 30 mg/kg
compound,measurement,setting,value
"CN(C)/N=N/c1[nH]cnc1C(N)=O [Dacarbazine, 5-(3,3-dimethyl-1-triazenyl)-4-carboxamideimidazolium citrate, reference compound]","Expression rate of PD-1/PD-L1, Positive PD-L1",PD-1/PD-L1 [1],72.51%
same,"Expression rate of PD-1/PD-L1, Positive PD-L1",PD-1/PD-L1 [2],72.51%
same,CD4 + T cells (number),[3],74.52 ± 7.38
same,CD8 + T cells (number),[3],123.74 ± 12.85
same,IC50,"[4]; Homo sapiens, A-375, dacarbazine against drug-resistant A375 melanoma cell lines, MTT, 48 h, read-out: IC50 Concentration",560 µg/mL
same,Drug-resistant index,"[4]; IC50 of drug-resistant cells/IC50 of sensitive cells, A375",6.22
same,CD4 + T cells (number),[5],63.67 ± 5.83
same,CD8 + T cells (number),[5],91.23 ± 3.84
same,Tumor inhibition rate (%),[6],4.55%
same,Tumor weight,[6],2.52 ± 0.77 g
same,Tumor weight,[7],2.33 ± 0.52 g
same,Tumor-inhibition rate (%),[7],1.27%
"Nc1ccn([C@@H]2O[C@H](CO)[C@@H](O)C2(F)F)c(=O)n1 [Gemcitabine, gemcitabine, reference compound]","Expression rate of PD-1/PD-L1, Positive PD-L1",PD-1/PD-L1 [1],74.35%
same,CD4 + T cells (number),[3],77.69 ± 8.96
same,CD8 + T cells (number),[3],121.08 ± 10.32
same,"Expression rate of PD-1/PD-L1, Positive PD-L1",PD-1/PD-L1 [8],78.93%
same,Tumor inhibitory rate (%),[9],5.24%
same,Tumor weight (g),[9],2.17 ± 0.89 ^ g
same,CD4 + T cells (number),[10],82.16 ± 1.42
same,CD8 + T cells (number),[10],112.53 ± 4.28
same,Tumor weight,[7],2.27 ± 0.38 g
same,Tumor-inhibition rate (%),[7],3.81%
same,inhibitory effect on the tumor (in words),"[7]; multidrug-resistant Lewis lung cancer mice, positive drug groups",don't have obvious inhibitory effect
same,IC50,"[11]; Homo sapiens, gemcitabine against drug-resistant A549 lung cancer cell lines, MTT, 48 h, read-out: IC50 Concentration",3620 µg/mL
same,Drug-resistant index,"[11]; IC50 of drug-resistant cells/IC50 of sensitive cells, A549",4.63
Opdivo: human programmed death receptor-1 (PD-1) blocking antibody; PD-1 inhibitor,CD4 + T cells (number),[12],74.63 ± 6.35
same,CD8 + T cells (number),[12],88.61 ± 5.82
same,"Tumor volume, Model group (cm^3)",B16 melanoma cell lines; 2 d after inoculation,0.00 ± 0.000 ** cm^3
same,"Tumor volume, Model group (cm^3)",B16 melanoma cell lines; 4 d after inoculation,0.084 ± 0.047 ** cm^3
same,"Tumor volume, Model group (cm^3)",B16 melanoma cell lines; 6 d after inoculation,0.106 ± 0.043 ** cm^3
same,"Tumor volume, Model group (cm^3)",B16 melanoma cell lines; 8 d after inoculation,0.128 ± 0.062 ** cm^3
same,"Tumor volume, Model group (cm^3)",B16 melanoma cell lines; 10 d after inoculation,0.179 ± 0.147 ** cm^3
same,"Tumor volume, Model group (cm^3)",B16 melanoma cell lines; 12 d after inoculation,0.286 ± 0.116 ** cm^3
same,"Tumor volume, Model group (cm^3)",B16 melanoma cell lines; 14 d after inoculation,0.881 ± 0.204 cm^3
same,"Expression rate of PD-1/PD-L1, Positive PD-L1",PD-1/PD-L1 [13],85.87%
same,continuous treatment effect / effect on tumor volume control (in words),[14],not obvious
same,Tumor volume (cm^3),[14]; [19],1.793 ± 0.842 cm^3
same,Tumor inhition rate (%),[14]; [20],1.41%
same,Tumor weight,[14]; [20],2.79 ± 1.13 g
same,CD4 + T cells (number),[15],64.22 ± 7.74
same,CD8 + T cells (number),[15],117.81 ± 7.99
same,"Tumor volume, Model group (cm^3)",[16]; 4 d after inoculation,0.00 ± 0.000 ** cm^3
same,"Tumor volume, Model group (cm^3)",[16]; 6 d after inoculation,0.073 ± 0.052* cm^3
same,"Tumor volume, Model group (cm^3)",[16]; 8 d after inoculation,0.098 ± 0.075** cm^3
same,"Tumor volume, Model group (cm^3)",[16]; 10 d after inoculation,0.121 ± 0.101** cm^3
same,"Tumor volume, Model group (cm^3)",[16]; 12 d after inoculation,0.164 ± 0.084** cm^3
same,"Tumor volume, Model group (cm^3)",[16]; 14 d after inoculation,0.226 ± 0.113** cm^3
same,"Tumor volume, Model group (cm^3)",[16]; 16 d after inoculation,0.464 ± 0.154* cm^3
same,"Tumor volume, Model group (cm^3)",[16]; 18 d after inoculation,0.984 ± 0.236 cm^3
same,"Expression rate of PD-1/PD-L1, Positive PD-L1",PD-1/PD-L1 [17],72.77%
same,continuous treatment effect / effect on tumor volume control (in words),[18],not obvious
same,Tumor volume (cm^3),[18]; [19],1.616 ± 0.772 cm^3
same,Tumor inhibition rate (%),[18]; [20],2.38%
same,Tumor weight,[18]; [20],2.52 ± 0.83 g

# Reference: patent publication US20210085630A1, “PHARMACEUTICAL COMPOSITION AND USE THEREOF IN PREPARING DRUG FOR TREATING TUMOR MULTI-DRUG RESISTANCE” (SICHUAN JIUZHANG BIOLOGICAL SCIENCE AND TECHNOLOGY CO., LTD., priority 2018, published 2021)
